Experimental data as given in patent US7390892B2, “Nucleic acids encoding novel cyclic GMP dependent protein kinases from Elmeria maxima” (Merial Limited, priority 2001, dated 2008).
≈ marks a conversion by molar mass, not a printed value. Where “and” joins values, the source holds several entries; their conditions need not be identical. Equal values may be shown once.

Columns and labels:
[1] = system: P. berghei; assay: Parasitemia in mice infected with P. berghei; type: in vivo; settings: Balb C mice, individual mice 1-5
Procedure: Balb C mice were infected intra-peritoneally with 1×10^6 P. berghei parasites in red blood cells. Two hours later twice daily intra-peritoneal treatment began with L-167645 in 10% DMSO. In the experiments described within, five animals were dosed with 75 milligrams compound per kilogram body weight (mpk) and received two treatments for one day. Five additional mice were dosed at 50 mpk and received two treatments daily for five days. Five control mice were dosed with an equivalent volume of 10% DMSO twice daily for 5 days. Parasite burden was measured by counting infected red blood cells as a function of total red blood cells (% parasitemia) and was performed periodically; -parasitemia on day 8 post-infection are tabulated below.

[2] = system: C. parvum; assay: In vitro tissue culture based assay with C. parvum; type: cell-based
[3] = system: Mixed-species field isolate of Eimeria DP-968 (E. maxima, E. acervulina, E. mitis, E. tenella); assay: Chicken battery experiment, mixed-species Eimeria field isolate DP-968; type: in vivo; settings: chickens, field isolate DP-968, 125 ppm in feed
Description: (§1) Chicken battery experiments have also been conducted to evaluate L-167645 efficacy against mixed-species field isolates of Eimeria. The Eimeria cultures were obtained from grower farms in major broiler-producing states. Two of these field isolates, DP-924 and DP-968, contained E. maxima parasites. Each treatment group consisted of one pen of three one-week old White Leghorn chickens. Animals were placed on medicated feed at doses of L-167645 ranging from 25 to 150 ppm for the duration of the study. After 48 hrs, birds were infected by oral gavage with a total of 1×10^5 sporulated oocysts.

[4] = target: Native E. maxima PKG (Eimeria maxima, UniProt Q8MMZ5); assay: PKG catalytic assay, native E. maxima PKG; type: biochemical
Procedure: E. maxima unsporulated oocysts were harvested from the ceca of chickens seven days after infection with sporulated oocysts and purified using standard methods (Schmatz et al, 1986, J. Protozoology 33, 109-114). Soluble extracts were prepared by vortexing 2×10^9 E. maxima unsporulated oocysts with an equal volume of buffer (10 mM HEPES pH 7.4, 1 mM sodium orthovanadate, 20% glycerol, 0.1 mg/ml Bacitracin and 0.5% Sigma protease inhibitor cocktail P8340), and an equal volume of […] glass beads for 20 minutes. The resulting homogenate was centrifuged (100,000×g, 1 hour) and the supernatant (S100) collected. Native E. maxima PKG activity in the S100 fraction was affinity purified using an 8-AET-cGMP-agarose matrix as described below. • (iv) Isolation and Characterization of Native PKG from P. falciparum
Kinase activity was detected using a peptide substrate and [γ-^33P]-ATP. An aliquot containing the respective enzyme preparations was combined with a reaction mixture (10 μl) whose composition is as follows: 25 mM HEPES pH 7.4, 10 mM MgCl2, 20 mM beta-glycerophosphate, 5 mM beta-mercaptoethanol, 10 μM cGMP, 1 mg/ml BSA, 400 μM Kemptide, 2 μM [γ-^33P]ATP (0.1 mCi/ml). […] In both cases filters were washed with 75 mM phosphoric acid, dried and ^33P-labelled phosphopeptide was detected by liquid scintillation counting.

[5] = system: Mixed-species field isolate of Eimeria DP-924 (E. maxima, E. acervulina, E. mitis); assay: Chicken battery experiment, mixed-species Eimeria field isolate DP-924; type: in vivo; settings: chickens, field isolate DP-924, 125 ppm in feed
Description: as §1

[6] = target: T1, Native P. falciparum PKG (Plasmodium falciparum, UniProt Q8I719); assay: PKG catalytic assay, native P. falciparum PKG; type: biochemical
T1 construct: endogenous in cells; host or cells: P. falciparum NF54, schizont/trophozoite-enriched cultures in human erythrocytes; MonoQ then 8-AET-cGMP-agarose
Procedure: The NF54 strain of P. falciparum was grown in 5% human O+ red blood cells in RPMI 1640 media supplemented with 10% heat-inactivated human serum and 3% hypoxanthine using modifications of standard conditions (Trager and Jensen, 1976, Science 193, 673-675). Media was changed daily and parasites were diluted into fresh erythrocytes to a parasitemia of 0.2-0.5% every 3 to 4 days; final parasitemia ranged from 4 to 10%. Synchronized cultures (Lambros and Vanderberg, 1979, J. Parasitology 65, 418-420) enriched for schizont and trophozoite stages were prepared in a continuous Percoll gradient (Rivadeneira et al, 1983 J. Protozoology 30, 367-370). […]
A linear NaCl gradient was applied (0-500 mM in 3ml @ 100 ul/min) and 100 ul fractions were collected and assayed for PKG enzyme activity. […] The purification of P. falciparum PKG was monitored by Western blot analysis using a commercially available antipeptide antisera directed at a conserved PKG peptide (Calbiochem Cat. No. 539729). • (v) PKG Catalytic Assay
(§2) Kinase activity was detected using a peptide substrate and [γ-^33P]-ATP. […] In both cases filters were washed with 75 mM phosphoric acid, dried and ^33P-labelled phosphopeptide was detected by liquid scintillation counting.

[7] = target: Recombinant E. maxima PKG (Eimeria maxima, UniProt Q8MMZ5); assay: PKG catalytic assay, recombinant E. maxima PKG; type: biochemical
Description: T. gondii was selected as a host cell for recombinant expression of functional E. maxima PKG enzyme. An Eimeria maxima cDNA encoding the PKG open reading frame (ORF) was modified prior to subcloning for expression by appending either an N-terminal or C-terminal FLAG epitope for detection purposes via PCR amplification. DNA fragments encoding FLAG-epitope tagged PKGs were then placed in a T. gondii expression vector under the control of a Toxoplasma α-tubulin promoter (Soldati and Boothroyd, 1993, Science 260, 349-352). The vector encodes bacterial chloramphenicol acetyltransferase (CAT) as a selectable marker for transfection.
T. gondii tachyzoites of the RH strain were maintained by serial passage in primary human foreskin fibroblast cultures (HFF). Host cells were grown in Dulbecco's modified Eagle's medium with 10% heat-inactivated newborn bovine serum. […]
Recombinant FLAG-tagged E. maxima PKG was purified from T. gondii lysates by FLAG immuno-affinity chromatography. […] Protein was measured with a micro BCA reagent (Pierce), using a TCA/sodium deoxycholate step (Brown et al, 1989, Analytical Biochemistry 180, 136-139) to remove residual FLAG peptide prior to quantitation. […]
as §2

[8] = system: E. maxima; assay: Efficacy against E. maxima in infected chickens (oocyst counts); type: in vivo; settings: 125 ppm in the feed, terminated on day 8
Procedure: Several studies have been conducted to evaluate the efficacy of […] against E. maxima in infected chickens. For efficacy studies against E. maxima alone, L-167645 was administered in the feed at doses from 25 to 150 ppm starting on day one. Birds were infected with 3.5×10^3 E. maxima sporalated oocysts on day 2 and medicated feed was continuously available at the respective doses for the duration of the study. The experiment was terminated on day 8, intestines were removed and homogenized and compound efficacy was estimated by performing oocyst counts.

[9] = system: Plasmodium falciparum; assay: PFAIV assay: tritiated hypoxanthine incorporation into parasitized red blood cells; type: cell-based; settings: Erythrocyte, in vitro cell culture, 48 hours, [3H]-hypoxanthine incorporation, read-out: concentration of compound required to inhibit growth by 50% (IC50)
Procedure: The PFAIV assay is an in vitro assay designed to identify potential inhibitors of P. falciparum by measuring the incorporation of tritiated hypoxanthine into parasitized red blood cells.
The following method is an adaptation of the method described by Desjardins, R. E. et al, 1979. AAC Vol 16, p710-718:
1. Sixty microliters of a solution of RPMI 1640 media plus gentamycin (1:100 dilution) containing the desired concentration of test compound is added to the wells of a 96-well plate. (For titrations, 120 microliters is added to the top well and the compounds are serially diluted into 60 microliters of media.)
2. Fifty three microliters of parasitized red blood cells is added to the wells. The parasitemia of the culture is approximately 2-3% and the hematocrit is 5%. The red blood cells are diluted in RPMI 1640 media containing 20% human A+ serum and gentamycin.
3. Twelve microliters of RPMI1640 media containing 200 uCi [^3H] - hypoxanthine is added to each well.
4. The plates are incubated at 37° C. for 48 hours under […] (candle jar). After incubation, the plates are frozen overnight (for safety), then thawed and harvested using a manual 96-well harvester onto UNIFILTER GF/B plates.
5. The plates are counted on a Wallac instrument and % inhibition of parasite growth is determined as compared to control wells containing no compound.

CN1CCC(c2cc(-c3ccncc3)c(-c3ccc(F)cc3)[nH]2)CC1 [L-167645, 4-[2-(4-fluorophenyl)-5-(1-methylpiperidine4-yl)-1H-pyrrol-3-yl]pyridine]
% parasitemia 8 days post-infection ([1]; 50 mpk intra-peritoneal, twice daily for five days, 50 mg/kg): 0% (2×) and 1% (2×) and 3% | % parasitemia 8 days post-infection ([1]; 75 mpk intra-peritoneal, two treatments for one day, 75 mg/kg): 3% and 4% and 1% (2×) and Dead | inhibition of parasitic growth [2]: effective in inhibiting parasitic growth | % Reduction in Oocyst Counts [3]: 86% | Relative % Weight Gain [3]: 94% | IC50 [4]: 4.6 nM | % Reduction in Oocyst Counts [5]: 97% | Relative % Weight Gain [5]: 108% | IC50 [6]: 8.53 nM | IC50 [7]: 4.2 nM | reduction in oocyst counts [8]: greater than 99% | IC50 [9]: 2.2 µg/mL (≈ 6.56 µM)
